# Reference: PubChem BioAssay AID588644 (The Scripps Research Institute Molecular Screening Center, 2011)
# Active and inactive are the calls of the source.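 Rule for the calls: active = rise or fall in EGR1 growth-response protein of at least 30% versus solvent-only treated cells; inactive = EGR1 protein change under 30% either way.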
# Target: Early growth response protein 1 (Homo sapiens) (UniProt P18146)
# Assay: EGR1 protein level reduction in HCT116 cells, late-stage follow-up, counter-screen for KLF5 inhibitor project, cell-based, HCT116 colorectal carcinoma, chemiluminescent western blot (AID 588644)
# Conditions: 24 h, at 10 µM, active compounds read high
row,Structure (SMILES),inhibition
1,CN(C(=O)CNC(=O)/C=C/c1cccc(Cl)c1)C1CCS(=O)(=O)C1 (stereo not drawn),18.6% (inactive)
2,CN(C(=O)COC(=O)/C=C/c1cccc([N+](=O)[O-])c1)C1CCS(=O)(=O)C1 (stereo not drawn),28.4% (inactive)
3,CN(C(=O)CNC(=O)/C=C/c1cccc(Cl)c1)C1CCS(=O)(=O)CC1,-3.53% (inactive)
